Paper PMC9652212 (Clinical Pharmacokinetics, 2022)
Where two headings read alike, the source gives them in different places.

How the values were obtained:
[1] = assay type: in vivo, human
[2] = cited from earlier work
hepatic CYP3A activity = settings: time after (first) perpetrator drug administration
CYP3A = settings: cited from earlier work
[3] = test system: pooled human liver microsomes; settings: MDZ and efavirenz; cited from earlier work
[4] = calculated from model parameters
[5] = metabolite in the absence of parent compound, ref Hotz et al. 27
[6] = ref Wiebe et al. 23, Tomalik-Scharte et al. 25
[7] = oral and i.v. bolus administration

## OCc1ncc2n1-c1ccc(Cl)cc1C(c1ccccc1F)=NC2 [1’-OH-MDZ, 1’-hydroxymidazolam]
[1]; [4]
  Elimination rate constant of 1’-OH-MDZ: 0.880 h⁻¹
  Formation rate constant of 1’-OH-MDZ: 0.712 h⁻¹
[1]; interindividual variability
  IIV of 1’-OH-MDZ CL: 42.0 %CV
[1]; population estimate after metabolic conversion of MDZ
  1’-OH-MDZ CL: 264 L/h
[2]; [5]
  1’-OH-MDZ CL, reported: 34.4 to 56.7 L/h
  1’-OH-MDZ V, reported: 49.7 to 79.8 L
[2]; [6]
  1’-OH-MDZ CL, reported: 186 to 208 L/h
  1’-OH-MDZ V, reported: 256 to 876 L

## O=C1Nc2ccc(Cl)cc2[C@@](C#CC2CC2)(C(F)(F)F)O1 [efavirenz]
Hepatic CYP3A activity
  Time of maximum CYP3A modulatory effect: 2 to 4 h
CYP3A; 12 h after efavirenz administration, ref Mikus et al. 32
  Increase in MDZ CL: 27%
[3]
  Increase in metabolite formation rates: ~ 1.5 fold

## Cc1ncc2n1-c1ccc(Cl)cc1C(c1ccccc1F)=NC2 [midazolam]
[1]; human, plasma, intravenous
  Vd: 56.7 L
  clearance: 732 mL/min
[1]; interindividual variability
  IIV of MDZ CL: 21.9 %CV
  IIV of MDZ volume of distribution: 29.9 %CV
[2]; [7]
  MDZ CL, reported: 15.2 to 45.0 L/h
  MDZ V, reported: 33.3 to 180 L/h

## C[C@@H](c1ncncc1F)[C@](O)(Cn1cncn1)c1ccc(F)cc1F [voriconazole]
[2]
  Oral bioavailability: > 90%
CYP3A; within 12 h after oral voriconazole, semi-physiological model
  Decrease in hepatic CYP3A activity: 75%
